Laboratory results reported in patent EP0326331B1, “Substituted quinolines and cinnolines” (Dow AgroSciences LLC, priority 1988, dated 1989).

Assays:
Type in all cases: in vivo
[1] = tested on: Puccinia recondita tritici (leaf rust); assay: Test 1 greenhouse foliar spray screen, leaf rust on wheat; details: disease control rating, foliar spray on wheat, 400 ppm (+++ at 100 ppm)
[2] = tested on: Pyricularia oryzae (rice blast); assay: whole plant or invertebrate; details: disease control rating, foliar spray on rice, 400 ppm (+++ at 100 ppm)
[3] = tested on: Erysiphe graminis tritici (powdery mildew); assay: Test 1 greenhouse foliar spray screen, powdery mildew on wheat; details: disease control rating, foliar spray on wheat, 400 ppm (+++ at 100 ppm)
[4] = tested on: Twospotted spider mites (Tetranychus urticae Koch); assay: Mite/insect screen, SM; details: for mortality at 200 ppm / mortality at 400 ppm: Tetranychus urticae, percent mortality, SAW, read-out: SM RESULTS %; for mortality at 200 ppm: SM & MA RATE 200 PPM; for mortality at 400 ppm: SM & MA RATE 400 PPM
Method: (§1) The compounds of Examples 1-295 were tested for miticidal and insecticidal activity in the following mite/insect screen.
(§2) Each test compound was formulated by dissolving the compound in acetone/alcohol (50:50) mixture containing 23 g of "TOXIMUL R" (sulfonate/nonionic emulsifier blend) and 13 g of "TOXIMUL S" (sulfonate/nonionic emulsifier blend) per liter. These mixtures were then diluted with water to give the indicated concentrations.
(§3) Other plants in the same treatment pot were left uninfested. The leaves were then sprayed with 5 ml of test solution using a DeVilbiss atomizing sprayer at 10 psi. Both surfaces of the leaves were covered until runoff, and then allowed to dry for one hour. Two uninfested leaves were then excised and placed into a Petri dish containing southern armyworm (Spodopetra eridania Cramer).
(§4) After standard exposure periods, percent mortality was evaluated. […]

corn rootworm = assay: Mite/insect screen, CRW; details: percent mortality, read-out: CRW RESULTS %; for mortality at 12 ppm: CRW RATE 12.00 PPM; for mortality at 24 ppm: CRW RATE 24.00 PPM
Method: as §1, §2, §4

[5] = tested on: southern armyworm (Spodopetra eridania Cramer); assay: Mite/insect screen, SAW; details: Spodoptera eridania, percent mortality, SAW, read-out: SAW RESULTS %; for mortality at 200 ppm: SM & MA RATE 200 PPM; for mortality at 400 ppm: SM & MA RATE 400 PPM
Method: as §1, §2, §3, §4

[6] = tested on: Pseudoperonospora cubensis (downy mildew); assay: Test 1 greenhouse foliar spray screen, downy mildew on squash; details: disease control rating, foliar spray on squash, 400 ppm (+++ at 100 ppm)
[7] = tested on: Botrytis cinerea (gray mold); assay: Test 1 greenhouse foliar spray screen, gray mold on grape berries; details: disease control rating, spray on grape berries, 400 ppm (+++ at 100 ppm)
[8] = tested on: melon aphids (Aphis gossypii Glover); assay: Mite/insect screen, MA; details: Aphis gossypii, percent mortality, SAW, read-out: MA RESULTS %; for mortality at 200 ppm: SM & MA RATE 200 PPM; for mortality at 400 ppm: SM & MA RATE 400 PPM
Method: as §1, §2, §3, §4

## FC(F)(F)c1cccc2c(NCCc3ccc(Cl)cc3)ccnc12 [Example 86, N-[2-(4-chlorophenyl)ethyl]-8-(trifluoromethyl)-4-quinolinamine]
[1]
  LEAF RUST: + (20-89% control at 400 ppm)
[2]
  RICE BLAST: - (0-19% control at 400 ppm)
[3]
  POWD MDEW: - (0-19% control at 400 ppm)
[4]
  mortality at 200 ppm: 0%
  mortality at 400 ppm: 0%
Corn rootworm
  mortality at 12 ppm: 0%
  mortality at 24 ppm: 0%
[5]
  mortality at 200 ppm: 0%
  mortality at 400 ppm: 0%
[6]
  DOWN MDEW: + (20-89% control at 400 ppm)
[7]
  GRAY MOLD: - (0-19% control at 400 ppm)
[8]
  mortality at 200 ppm: 0%
  mortality at 400 ppm: 0%

## Fc1cccc2c(NCCc3ccc(Oc4ccccc4)cc3)ccnc12 [Example 90, 8-fluoro-N-[2-(4-phenoxyphenyl)ethyl]-4-quinolinamine]
[1]
  LEAF RUST: +++ (90-100% control at 100 ppm)
[2]
  RICE BLAST: +++ (90-100% control at 100 ppm)
[3]
  POWD MDEW: - (0-19% control at 400 ppm)
[4]
  mortality at 200 ppm: 80%
  mortality at 400 ppm: 0%
[4]; summary statement in the description
  activity as miticides: particularly excellent activity
Corn rootworm
  mortality at 12 ppm: 0%
  mortality at 24 ppm: 0%
[5]
  mortality at 200 ppm: 100%
  mortality at 400 ppm: 0%
[6]
  DOWN MDEW: +++ (90-100% control at 100 ppm)
[7]
  GRAY MOLD: - (0-19% control at 400 ppm)
[8]
  mortality at 200 ppm: 80%
  mortality at 400 ppm: 0%

## COc1ccccc1CCNc1ccnc2cc(Cl)ccc12 [Example 100, 7-chloro-N-[2-(2-methoxyphenyl)ethyl]-4-quinolinamine]
[1]
  LEAF RUST: + (20-89% control at 400 ppm)
[2]
  RICE BLAST: + (20-89% control at 400 ppm)
[3]
  POWD MDEW: + (20-89% control at 400 ppm)
[4]
  mortality at 200 ppm: 0%
  mortality at 400 ppm: 0%
Corn rootworm
  mortality at 12 ppm: 0%
  mortality at 24 ppm: 0%
[5]
  mortality at 200 ppm: 0%
  mortality at 400 ppm: 0%
[6]
  DOWN MDEW: + (20-89% control at 400 ppm)
[7]
  GRAY MOLD: - (0-19% control at 400 ppm)
[8]
  mortality at 200 ppm: 0%
  mortality at 400 ppm: 0%

## Cc1cc(NCCc2ccc(Cl)cc2)c2ccccc2n1 [Example 102, N-[2-(4-chlorophenyl)ethyl]-2-methyl-4-quinolinamine]
[1]
  LEAF RUST: - (0-19% control at 400 ppm)
[2]
  RICE BLAST: + (20-89% control at 400 ppm)
[3]
  POWD MDEW: + (20-89% control at 400 ppm)
[4]
  mortality at 200 ppm: 0%
  mortality at 400 ppm: 0%
Corn rootworm
  mortality at 12 ppm: 0%
  mortality at 24 ppm: 0%
[5]
  mortality at 200 ppm: 0%
  mortality at 400 ppm: 50%
[6]
  DOWN MDEW: - (0-19% control at 400 ppm)
[7]
  GRAY MOLD: - (0-19% control at 400 ppm)
[8]
  mortality at 200 ppm: 0%
  mortality at 400 ppm: 0%

## Cc1ccc(C)c2c(NCCc3ccc(Cl)cc3)ccnc12 [Example 109, N-[2-(4-chlorophenyl)ethyl]-5,8-dimethyl-4-quinolinamine]
[1]
  LEAF RUST: ++ (90-100% control at 400 ppm)
[2]
  RICE BLAST: + (20-89% control at 400 ppm)
[3]
  POWD MDEW: + (20-89% control at 400 ppm)
[4]
  mortality at 400 ppm: 0%
Corn rootworm
  mortality at 24 ppm: 0%
[5]
  mortality at 400 ppm: 0%
[6]
  DOWN MDEW: +++ (90-100% control at 100 ppm)
[7]
  GRAY MOLD: - (0-19% control at 400 ppm)
[8]
  mortality at 400 ppm: 0%

## Nc1cccc2c(NCCc3ccc(Cl)cc3)ccnc12 [Example 110, N(4)-[2-(4-chlorophenyl)ethyl]-4,8-quinolinediamine]
[1]
  LEAF RUST: ++ (90-100% control at 400 ppm)
[2]
  RICE BLAST: + (20-89% control at 400 ppm)
[3]
  POWD MDEW: - (0-19% control at 400 ppm)
[4]
  mortality at 200 ppm: 0%
  mortality at 400 ppm: 0%
Corn rootworm
  mortality at 12 ppm: 0%
  mortality at 24 ppm: 0%
[5]
  mortality at 200 ppm: 0%
  mortality at 400 ppm: 0%
[6]
  DOWN MDEW: ++ (90-100% control at 400 ppm)
[7]
  GRAY MOLD: - (0-19% control at 400 ppm)
[8]
  mortality at 200 ppm: 0%
  mortality at 400 ppm: 0%

## Clc1ccccc1CCNc1ccnc2c(Cl)cccc12 [Example 115, N-[2-(2-chlorophenyl)ethyl]-8-chloro-4-quinolinamine]
[1]
  LEAF RUST: - (0-19% control at 400 ppm)
[2]
  RICE BLAST: + (20-89% control at 400 ppm)
[3]
  POWD MDEW: - (0-19% control at 400 ppm)
[4]
  mortality at 200 ppm: 0%
  mortality at 400 ppm: 0%
Corn rootworm
  mortality at 12 ppm: 0%
  mortality at 24 ppm: 0%
[5]
  mortality at 200 ppm: 0%
  mortality at 400 ppm: 0%
[6]
  DOWN MDEW: + (20-89% control at 400 ppm)
[7]
  GRAY MOLD: - (0-19% control at 400 ppm)
[8]
  mortality at 200 ppm: 0%
  mortality at 400 ppm: 0%

## CC(=O)N(CCc1ccc(Cl)cc1)c1ccnc2ccc(F)cc12 [Example 121, N-[2-(4-chlorophenyl)ethyl]-N-(6-fluoro-4-quinolinyl)acetamide]
[1]
  LEAF RUST: ++ (90-100% control at 400 ppm)
[2]
  RICE BLAST: - (0-19% control at 400 ppm)
[3]
  POWD MDEW: + (20-89% control at 400 ppm)
[4]
  mortality at 200 ppm: 0%
  mortality at 400 ppm: 0%
Corn rootworm
  mortality at 12 ppm: 0%
  mortality at 24 ppm: 0%
[5]
  mortality at 200 ppm: 0%
  mortality at 400 ppm: 0%
[6]
  DOWN MDEW: + (20-89% control at 400 ppm)
[7]
  GRAY MOLD: - (0-19% control at 400 ppm)
[8]
  mortality at 200 ppm: 0%
  mortality at 400 ppm: 0%

## COc1ccc(CCN(C(C)=O)c2ccnc3cc(Cl)ccc23)cc1 [Example 125, N-(7-chloro-4-quinolinyl)-N-[2-(4-methoxyphenyl)ethyl]acetamide]
[1]
  LEAF RUST: - (0-19% control at 400 ppm)
[2]
  RICE BLAST: - (0-19% control at 400 ppm)
[3]
  POWD MDEW: + (20-89% control at 400 ppm)
[4]
  mortality at 200 ppm: 0%
  mortality at 400 ppm: 0%
Corn rootworm
  mortality at 12 ppm: 0%
  mortality at 24 ppm: 0%
[5]
  mortality at 200 ppm: 0%
  mortality at 400 ppm: 0%
[6]
  DOWN MDEW: - (0-19% control at 400 ppm)
[7]
  GRAY MOLD: - (0-19% control at 400 ppm)
[8]
  mortality at 200 ppm: 0%
  mortality at 400 ppm: 0%

## CC(=O)N(CCc1ccc(Cl)cc1Cl)c1ccnc2cc(C(F)(F)F)ccc12 [Example 127, N-[2-(2,4-dichlorophenyl)ethyl]-N-[7-(trifluoromethyl)-4-quinolinyl]acetamide]
[1]
  LEAF RUST: + (20-89% control at 400 ppm)
[2]
  RICE BLAST: + (20-89% control at 400 ppm)
[3]
  POWD MDEW: + (20-89% control at 400 ppm)
[4]
  mortality at 200 ppm: 0%
  mortality at 400 ppm: 0%
Corn rootworm
  mortality at 12 ppm: 0%
  mortality at 24 ppm: 0%
[5]
  mortality at 200 ppm: 0%
  mortality at 400 ppm: 0%
[6]
  DOWN MDEW: + (20-89% control at 400 ppm)
[7]
  GRAY MOLD: - (0-19% control at 400 ppm)
[8]
  mortality at 200 ppm: 0%
  mortality at 400 ppm: 0%

## CC(=O)N(CCc1ccc(C(C)(C)C)cc1)c1ccnc2c(F)cccc12 [Example 128, N-[4-(t-butyl)phenyl]ethyl-N-(8-fluoro-4-quinolinyl)acetamide]
[1]
  LEAF RUST: + (20-89% control at 400 ppm)
[2]
  RICE BLAST: + (20-89% control at 400 ppm)
[3]
  POWD MDEW: - (0-19% control at 400 ppm)
[4]
  mortality at 200 ppm: 0%
  mortality at 400 ppm: 0%
Corn rootworm
  mortality at 12 ppm: 0%
  mortality at 24 ppm: 0%
[5]
  mortality at 200 ppm: 0%
  mortality at 400 ppm: 0%
[6]
  DOWN MDEW: - (0-19% control at 400 ppm)
[7]
  GRAY MOLD: - (0-19% control at 400 ppm)
[8]
  mortality at 200 ppm: 0%
  mortality at 400 ppm: 0%

## CC(=O)N(CCc1ccc(-c2ccccc2)cc1)c1ccnc2c(F)cccc12 [Example 130, N-[2-(1,1'-biphenyl)-4-ylethyl]-N-(8-fluoro-4-quinolinyl)acetamide]
[1]
  LEAF RUST: - (0-19% control at 400 ppm)
[2]
  RICE BLAST: - (0-19% control at 400 ppm)
[3]
  POWD MDEW: - (0-19% control at 400 ppm)
[4]
  mortality at 200 ppm: 0%
  mortality at 400 ppm: 0%
Corn rootworm
  mortality at 12 ppm: 0%
  mortality at 24 ppm: 0%
[5]
  mortality at 200 ppm: 0%
  mortality at 400 ppm: 0%
[6]
  DOWN MDEW: - (0-19% control at 400 ppm)
[7]
  GRAY MOLD: - (0-19% control at 400 ppm)
[8]
  mortality at 200 ppm: 0%
  mortality at 400 ppm: 0%
